How the values were obtained:
Homo sapiens [1] = species: Homo sapiens; experiment: Selectivity ratio of Ki for displacement of [3H]-(R)-(+)7-OH-DPAT from human dopamine D3 receptor expressed in HEK293 cell membranes to Ki for displacement of [3H]-(R)-(+)7-OH-DPAT from human dopamine D2 receptor expressed in HEK293 cell membranes
D(3) dopamine receptor = D(3) dopamine receptor (Homo sapiens, UniProt P35462); experiment: Displacement of [3H]-(R)-(+)7-OH-DPAT from human dopamine D3 receptor expressed in HEK293 cell membranes incubated for 90 mins by microbeta scintillation counting analysis; parameters: species or system Cell membrane
HEK293 = experiment: Selectivity ratio of Ki for displacement of [3H]-(R)-(+)7-OH-DPAT from human dopamine D2 receptor expressed in HEK293 cell membranes to Ki for displacement of [3H]-(R)-(+)7-OH-DPAT from human dopamine D3 receptor expressed in HEK293 cell membranes; details: Cell membrane
Homo sapiens [2] = species: Homo sapiens; experiment: Selectivity ratio of Ki for displacement of [3H]-N-methylspiperone from human dopamine D2 receptor expressed in HEK293 cell membranes to Ki for displacement of [3H]-N-methylspiperone from human dopamine D3 receptor expressed in HEK293 cell membranes
D(2) dopamine receptor = D(2) dopamine receptor (Homo sapiens, UniProt P14416); experiment: Displacement of [3H]-(R)-(+)7-OH-DPAT from human dopamine D2 receptor expressed in HEK293 cell membranes incubated for 90 mins by microbeta scintillation counting analysis; parameters: species or system Cell membrane
D(2) dopamine receptor, sequence (P14416 whole entry): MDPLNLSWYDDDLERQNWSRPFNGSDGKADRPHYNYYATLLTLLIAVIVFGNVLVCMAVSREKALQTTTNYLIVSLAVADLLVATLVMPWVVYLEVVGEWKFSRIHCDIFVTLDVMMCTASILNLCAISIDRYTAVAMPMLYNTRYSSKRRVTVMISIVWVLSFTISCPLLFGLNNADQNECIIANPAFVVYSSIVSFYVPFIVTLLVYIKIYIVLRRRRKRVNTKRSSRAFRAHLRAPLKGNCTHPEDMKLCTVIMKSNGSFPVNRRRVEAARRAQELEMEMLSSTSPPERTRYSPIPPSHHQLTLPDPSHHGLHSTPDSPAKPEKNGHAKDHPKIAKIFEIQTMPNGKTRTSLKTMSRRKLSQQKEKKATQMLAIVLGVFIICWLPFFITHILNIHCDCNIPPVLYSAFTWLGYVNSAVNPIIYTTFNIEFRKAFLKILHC

D(3) dopamine receptor, sequence (P35462 whole entry): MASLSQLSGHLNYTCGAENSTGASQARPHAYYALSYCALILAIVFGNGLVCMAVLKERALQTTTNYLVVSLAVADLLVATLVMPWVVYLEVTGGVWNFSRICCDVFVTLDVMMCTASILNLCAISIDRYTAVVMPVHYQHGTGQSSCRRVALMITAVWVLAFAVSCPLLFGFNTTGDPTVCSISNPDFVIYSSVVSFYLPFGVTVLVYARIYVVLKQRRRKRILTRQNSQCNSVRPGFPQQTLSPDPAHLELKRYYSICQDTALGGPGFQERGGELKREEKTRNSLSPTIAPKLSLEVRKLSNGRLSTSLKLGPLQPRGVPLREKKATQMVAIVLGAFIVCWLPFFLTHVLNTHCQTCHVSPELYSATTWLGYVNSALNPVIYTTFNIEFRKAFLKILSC

| SMILES | Ratio Ki (Homo sapiens [1]) | Ki (D(3) dopamine receptor) [nM] | Ratio Ki (HEK293) | Ratio Ki (Homo sapiens [2]) | Ki (D(2) dopamine receptor) [nM] |
| --- | --- | --- | --- | --- | --- |
| CN(CC[C@@H]1CC[C@@H](CNC(=O)c2cc3ccccc3[nH]2)C1)[C@@H]1Cc2cccc3[nH]c(=O)n(c23)C1 (relative stereo) | 17 |  |  |  |  |
| C[C@H]1CO[C@@H](c2ccc(N)nc2)CN1CCn1cc(CNC(=O)c2cc3ccccc3[nH]2)nn1 |  | 6860 | 2 | 12 | 13500 |
| CN(CC[C@@H]1CC[C@H](CNC(=O)c2cc3ccccc3[nH]2)C1)[C@@H]1Cc2cccc3[nH]c(=O)n(c23)C1 (relative stereo) | 9.6 |  |  |  |  |
| C[C@H]1CO[C@@H](c2ccc(N)nc2)CN1CC(=O)N1CCC(CNC(=O)c2cc3ccccc3[nH]2)C1 (some centres undefined) |  | 1380 | 1.4 | 3.3 | 1870 |
| CN[C@@H]1Cc2cccc3[nH]c(=O)n(c23)C1 [SUMANIROLE] |  | 784 |  |  |  |
| CN(C[C@H]1C[C@@H]1CCNC(=O)c1cc2ccccc2[nH]1)[C@@H]1Cc2cccc3[nH]c(=O)n(c23)C1 |  | 22.1 | 2.2 |  | 49.1 |
| C[C@H]1CO[C@@H](c2ccc(N)nc2)CN1C/C=C1\CCC(CNC(=O)c2cc3ccccc3[nH]2)C1 (mixture of isomers) |  |  | 7.5 | 76 |  |
| CN(C[C@@H]1C[C@H]1CCNC(=O)c1cc2ccccc2[nH]1)[C@@H]1Cc2cccc3[nH]c(=O)n(c23)C1 | 11 | 106 |  |  | 9.56 |

Source: ChEMBL document CHEMBL5226346, “Chiral Cyclic Aliphatic Linkers as Building Blocks for Selective Dopamine D2 or D3 Receptor Agonists” (J Med Chem, 2021)
